How the values were obtained:
[1] = system: NCI-H460; test: Anticancer activity against human NCI-H460 cells assessed as cell growth inhibition at 10 uM incubated for 48 hrs by SRB assay relative to control; format: functional; settings: read-out: GI
[2] = biological target: Carbonic anhydrase 9 (Homo sapiens, UniProt Q16790); test: Inhibition of recombinant human CA 9 preincubated for 15 mins by phenol red dye based stopped flow CO2 hydration assay
[3] = system: HCT-15; test: Anticancer activity against human HCT-15 cells assessed as cell growth inhibition at 10 uM incubated for 48 hrs by SRB assay relative to control; format: functional; settings: read-out: GI
[4] = system: NCI-H226; test: Anticancer activity against human NCI-H226 cells assessed as cell growth inhibition at 10 uM incubated for 48 hrs by SRB assay relative to control; format: functional; settings: read-out: GI
[5] = system: SR; test: Anticancer activity against human SR cells assessed as cell growth inhibition at 10 uM incubated for 48 hrs by SRB assay relative to control; format: functional; settings: read-out: GI
[6] = system: HT-29; test: Anticancer activity against human HT-29 cells assessed as cell growth inhibition at 10 uM incubated for 48 hrs by SRB assay relative to control; format: functional; settings: read-out: GI
[7] = system: DU-145; test: Anticancer activity against human DU-145 cells assessed as cell growth inhibition at 10 uM incubated for 48 hrs by SRB assay relative to control; format: functional; settings: read-out: GI
[8] = system: PC-3; test: Anticancer activity against human PC-3 cells assessed as cell growth inhibition at 10 uM incubated for 48 hrs by SRB assay relative to control; format: functional; settings: read-out: GI
[9] = system: CCRF-CEM; test: Anticancer activity against human CCRF-CEM cells assessed as cell growth inhibition at 10 uM incubated for 48 hrs by SRB assay relative to control; format: functional; settings: read-out: GI
[10] = system: TK-10; test: Anticancer activity against human TK-10 cells assessed as cell growth inhibition at 10 uM incubated for 48 hrs by SRB assay relative to control; format: functional; settings: read-out: GI
[11] = system: SF-539; test: Anticancer activity against human SF-539 cells assessed as cell growth inhibition at 10 uM incubated for 48 hrs by SRB assay relative to control; format: functional; settings: read-out: GI
[12] = system: ACHN; test: Anticancer activity against human ACHN cells assessed as cell growth inhibition at 10 uM incubated for 48 hrs by SRB assay relative to control; format: functional; settings: read-out: GI
[13] = system: SN12C; test: Anticancer activity against human SN12C cells assessed as cell growth inhibition at 10 uM incubated for 48 hrs by SRB assay relative to control; format: functional; settings: read-out: GI
[14] = system: U-251; test: Anticancer activity against human U-251 cells assessed as cell growth inhibition at 10 uM incubated for 48 hrs by SRB assay relative to control; format: functional; settings: read-out: GI
[15] = system: OVCAR-5; test: Anticancer activity against human OVCAR-5 cells assessed as cell growth inhibition at 10 uM incubated for 48 hrs by SRB assay relative to control; format: functional; settings: read-out: GI
[16] = system: LOX IMVI; test: Anticancer activity against human LOX IMVI cells assessed as cell growth inhibition at 10 uM incubated for 48 hrs by SRB assay relative to control; format: functional; settings: read-out: GI
[17] = system: HCT-116; test: Anticancer activity against human HCT-116 cells assessed as cell growth inhibition at 10 uM incubated for 48 hrs by SRB assay relative to control; format: functional; settings: read-out: GI
[18] = system: UACC-62; test: Anticancer activity against human UACC-62 cells assessed as cell growth inhibition at 10 uM incubated for 48 hrs by SRB assay relative to control; format: functional; settings: read-out: GI
[19] = system: HCC 2998; test: Anticancer activity against human HCC 2998 cells assessed as cell growth inhibition at 10 uM incubated for 48 hrs by SRB assay relative to control; format: functional; settings: read-out: GI
[20] = system: UO-31; test: Anticancer activity against human UO-31 cells assessed as cell growth inhibition at 10 uM incubated for 48 hrs by SRB assay relative to control; format: functional; settings: read-out: GI
[21] = system: MCF7; test: Anticancer activity against human MCF7 cells assessed as cell growth inhibition at 10 uM incubated for 48 hrs by SRB assay relative to control; format: functional; settings: read-out: GI

SMILES	inhibition of growth at 10 µM [1] [%]	inhibition of growth at 10 µM [3] [%]	inhibition of growth at 10 µM [4] [%]	inhibition of growth at 10 µM [5] [%]	inhibition of growth at 10 µM [6] [%]	inhibition of growth at 10 µM [7] [%]	inhibition of growth at 10 µM [8] [%]	inhibition of growth at 10 µM [9] [%]	inhibition of growth at 10 µM [10] [%]	inhibition of growth at 10 µM [11] [%]	inhibition of growth at 10 µM [12] [%]	inhibition of growth at 10 µM [13] [%]	inhibition of growth at 10 µM [14] [%]	inhibition of growth at 10 µM [15] [%]	inhibition of growth at 10 µM [16] [%]	inhibition of growth at 10 µM [17] [%]	inhibition of growth at 10 µM [18] [%]	inhibition of growth at 10 µM [19] [%]	inhibition of growth at 10 µM [20] [%]	inhibition of growth at 10 µM [21] [%]	other results
NS(=O)(=O)c1ccc(Nc2nc(N/N=C/c3ccc([N+](=O)[O-])cc3)nc(Nc3ccccc3)n2)cc1	98	13	40	84	75	56	49	88	< 10	136	17	72	81	18	120	83	54	80	18	90	Ki [2]: 31.7 nM
CCCCc1nc(/C=N/Nc2nc(Nc3ccccc3)nc(Nc3ccc(S(N)(=O)=O)cc3)n2)c(Cl)[nH]1	< 10	< 10	< 10	88	< 10	15	17	87	< 10	18	< 10	< 10	101	< 10	58	< 10	27	29	14	53	Ki [2]: 259 nM
Cc1ccc(/C=N/Nc2nc(Nc3ccccc3)nc(Nc3ccc(S(N)(=O)=O)cc3)n2)cc1	45	46	20	64	45	34	33	57	< 10	55	38	17	37	15	45	48	< 10	25	31	73	Ki [2]: 26.9 nM
NS(=O)(=O)c1ccc(Nc2nc(N/N=C/c3c[nH]c4ccccc34)nc(Nc3ccccc3)n2)cc1	58	24	58	87	68	56	73	87	20	52	18	59	71	12	110	84	61	47	50	81	Ki [2]: 25.8 nM
NS(=O)(=O)c1ccc(Nc2nc(N/N=C/c3ccc4c(c3)OCO4)nc(Nc3ccccc3)n2)cc1	97	17	34	79	59	58	40	83	< 10	83	42	45	44	< 10	73	63	21	76	23	81	Ki [2]: 29.3 nM
COc1ccc(/C=N/Nc2nc(Nc3ccccc3)nc(Nc3ccc(S(N)(=O)=O)cc3)n2)cc1	44	31	26	51	44	34	24	54	20	51	24	19	33	14	47	49	12	12	22	59	Ki [2]: 99.4 nM
NNc1nc(Nc2ccccc2)nc(Nc2ccc(S(N)(=O)=O)cc2)n1	< 10	< 10	< 10	32	< 10	< 10	< 10	< 10	< 10	< 10	< 10	< 10	< 10	< 10	< 10	< 10	< 10	< 10	13	< 10	–
NS(=O)(=O)c1ccc(Nc2nc(N/N=C/c3cccs3)nc(Nc3ccccc3)n2)cc1	31	14	29	52	29	40	23	68	< 10	34	21	13	< 10	19	32	74	24	11	16	47	Ki [2]: 255 nM
NS(=O)(=O)c1ccc(Nc2nc(N/N=C/c3ccc(F)cc3)nc(Nc3ccccc3)n2)cc1	34	20	49	42	95	68	60	80	98	37	19	49	88	24	39	55	39	44	33	71	Ki [2]: 61.3 nM

— ChEMBL document CHEMBL5154747, “Discovery of new carbonic anhydrase IX inhibitors as anticancer agents by toning the hydrophobic and hydrophilic rims of the active site to encounter the dual-tail approach” (Eur J Med Chem, 2022)
